The nature of this series: Storage stability: level of aldehyde impurity of formula (XXV), HPLC peak at RRT 1.3. The series is classed as physicochemical. As to conditions: stored at 2-8° C. The method, then:
Based on experimental data, there is a correlation between the palladium content in the final end-product and drug substance of formula (XXIII) and the oxidative degradation of an aldehyde impurity. […] The degradation is manifested as an aldehyde impurity peak of formula (XXV) appearing at a relative retention time (RRT) of 1.3.
This impurity peak is found to be no more than 0.2% a/a when stored at 2-8° C., but higher levels are observed at elevated temperatures. The experimental results are depicted in FIGS. 6-7 and Tables 1, 4 and 5 for drug substance lots and corresponding formulations outlined in Tables 1-3.
The stability data and effect of palladium content on aldehyde impurity represented by the area percent of RRT 1.3 at a storage condition of 25° C. and 60% RH is provided in Table 4 and FIG. 6.
The effect of temperature on stability and the level of aldehyde impurity represented by the area percent of RRT 1.3 is provided in Table 5 and FIG. 7.

As to `C[C@@H]1CN(CC(=O)N2CC(C)(C)c3nc(CO)c(Cc4ccc(F)cc4)cc32)[C@@H](CN2CCOC[C@H]2C)CN1.C[C@H](O)C(=O)O` [formula (XXIII)], the “impurity peak level at RRT 1.3 (aldehyde impurity of formula (XXV))” value is “no more than 0.2 % a/a”.

For the origin of these results see US20230183234A1, “IAP ANTAGONIST COMPOUNDS AND INTERMEDIATES AND METHODS FOR SYNTHESIZING THE SAME” (Otsuka Pharmaceutical Co., Ltd., priority 2020, published 2023).
